The text below walks through data of PMC3106415 (Bioorganic & medicinal chemistry, 2010).

pKi: −log10 of the molar value.

The term pKi denotes the negative decadic logarithm of the Ki, by convention in mol/L.

For one experiment, the target named is rat A2A AR (Rattus norvegicus, UniProt P30543). As to the kind of experiment: Radioligand binding to rA2A AR.
Another experiment addresses rA2A receptor. The note with it: read-out: Ki at rA2A receptor; cited from earlier work.

Chain of rat A2A AR (P30543 whole entry): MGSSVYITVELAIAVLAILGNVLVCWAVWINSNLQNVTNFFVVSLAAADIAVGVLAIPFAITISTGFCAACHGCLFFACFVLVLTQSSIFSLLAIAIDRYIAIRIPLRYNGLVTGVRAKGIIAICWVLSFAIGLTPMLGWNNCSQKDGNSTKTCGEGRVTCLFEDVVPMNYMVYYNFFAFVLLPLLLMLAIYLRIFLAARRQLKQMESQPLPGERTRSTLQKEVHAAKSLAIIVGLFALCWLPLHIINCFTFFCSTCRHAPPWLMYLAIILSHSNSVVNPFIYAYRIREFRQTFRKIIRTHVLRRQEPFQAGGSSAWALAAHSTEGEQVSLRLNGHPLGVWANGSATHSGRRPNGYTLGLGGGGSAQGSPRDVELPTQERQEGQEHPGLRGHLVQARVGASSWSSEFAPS

As for `CCCCCC(=O)Nc1nc(SC)nc2nc(-c3ccco3)nn12` [Compound 11, 2-(2-Furyl)-5-methylthio-7-n-pentylcarbonylamino-[1,2,4]-triazolo[1,5-a]-[1,3,5]triazine], the pKi at rat A2A AR was 6.40 to 6.74.

Regarding `Nc1nc(NCCc2ccc(O)cc2)nc2nc(-c3ccco3)nn12` [ZM241385, 4-(2-[7-amino-2-{2-furyl}{1,2,4}triazolo{2,3-a}{1,3,5,}triazin-5-ylamino]ethyl)phenol], at rA2A receptor, the pKi was 9.30 to 9.68.
